Biological target: HCV-NS5BΔ21 RdRp genotype 1b (strain J4) (Hepatitis C virus genotype 1b, UniProt O92972)
Experiment: biochemical
Design: His6 (N); made in house; host or cells: Escherichia coli C41(DE3)
Conditions: 20 μM compound; for Slope of fluorescence increase: no treatment control slope 62.0
Method: The HCV RdRps (NS5B protein) from reference strains H77 (genotype 1a), J4 (genotype 1b) and JFH1 (genotype 2a), truncated of their 21 C-terminal amino acids to ensure solubility (NS5BΔ21) and carrying a hexahistidine tag (His6-Tag) at their N-terminus, were expressed in Escherichia coli C41(DE3) and purified as previously described ([20]). Briefly, cultures were grown at 37°C for ∼1 h and induced with 1 mM isopropyl β-D-thiogalactoside for 4 h at 37°C. […] After sonication, cell lysates were clarified by centrifugation, and chromatography was performed on a Ni-NTA column (Qiagen, Hilden, Germany). The bound protein was eluted in 1 ml fractions with a buffer containing 50 mM NaH2PO4 (pH 8.0), 500 mM NaCl and 250 mM imidazole. NS5BΔ21-enriched fractions were selected using a Bradford colorimetric assay, and HCV-NS5BΔ21 purity was determined by Coomassie-stained sodium dodecyl sulfate-polyacrylamide electrophoresis gel (SDS-PAGE) analysis. Purified NS5BΔ21 fractions were pooled and dialyzed against a buffer containing 5 mM Tris (pH 7.5), 0.2 M sodium acetate, 1 mM DTT, 1 mM ethylenediaminetetraacetic acid (EDTA) and 10% glycerol.
The cell-free HCV-NS5BΔ21 polymerase assay is based on the real-time measurement of the amount of double-stranded RNA synthesized in the presence of HCV-NS5BΔ21, a homopolymeric RNA template (poly U or poly C, GE Healthcare, Chalfont St. Giles, UK) and the corresponding nucleotide, by means of an intercalating agent (SYBR® Green, Applied Biosystems, Carlsbad, CA, USA), as previously described ([20]). For screening, HCV-NS5BΔ21 polymerase activity was quantified by the slope of fluorescence increase in the presence of 20 μM of the tested flavonoid compounds and compared with the control reaction containing no inhibitor. […] The reported values are the average of three independent measurements performed in duplicate. For kinetics analysis, initial reaction velocities were measured at different nucleotide (adenosine triphosphate (ATP) or GTP) and studied compound concentrations, without pre-incubation and in the presence of 50 μg/ml of the corresponding homopolymeric RNA template (Poly U and Poly C, respectively). The concentration of NS5BΔ21 (J4 strain, genotype 1b) in the reaction was 0.1 mg/ml. Kinetics data were graphically represented as double reciprocal plots. Data points were fitted by linear regression to identify the inhibition mode of the compound.

Oc1cc(O)c2c(c1)O[C@H](c1ccc(O)c(O)c1)[C@@H](O)C2 (racemic) [DL-Catechin]
% HCV-NS5BΔ21 inhibition: 17.7%
Slope of fluorescence increase: 51.1

O=C1c2ccc(O)cc2OC(c2cc(O)c(O)c(O)c2)C1O (stereo in doubt) [Dihydrorobinetin]
% HCV-NS5BΔ21 inhibition: 11.0%
Slope of fluorescence increase: 55.2

O=c1cc(-c2ccc(O)c(O)c2)oc2ccccc12 [3’.4’-Dihydroxyflavone]
% HCV-NS5BΔ21 inhibition: 45.4%
Slope of fluorescence increase: 33.9

O=c1cc(-c2ccc(O)c(O)c2)oc2c(O)c(O)ccc12 [3’.4’.7.8-Tetrahydroxyflavone]
% HCV-NS5BΔ21 inhibition: 30.9%
Slope of fluorescence increase: 42.9

O=C1CC(c2ccc(O)cc2)Oc2ccccc21 (stereo not shown) [4’-Hydroxyflavanone]
inhibition at 20 µM: 9.3%
Slope of fluorescence increase: 56.3

O=c1c(O)c(-c2ccc(O)cc2)oc2cc(O)ccc12 [5-Deoxykampferol]
% HCV-NS5BΔ21 inhibition (20 µM): 63.9%
Slope of fluorescence increase: 22.4

O=c1cc(-c2ccccc2)oc2cccc(O)c12 [5-hydroxyflavone]
inhibition at 20 µM: 14.5%
Slope of fluorescence increase: 53.0

O=c1cc(-c2ccccc2)oc2c(O)c(O)cc(O)c12 [5.7.8-Trihydroxyflavone]
% HCV-NS5BΔ21 inhibition: 47.4%
Slope of fluorescence increase: 32.6

O=C1CC(c2ccccc2)Oc2ccc(O)cc21 (stereo not shown) [6-Hydroxyflavanone]
inhibition at 20 µM: 4.1%
Slope of fluorescence increase: 59.5

O=c1cc(-c2ccccc2)oc2ccc(O)cc12 [6-Hydroxyflavone]
inhibition at 20 µM: 18.5%
Slope of fluorescence increase: 50.6

O=c1cc(-c2ccccc2)oc2cc(O)c(O)cc12 [6.7 Dihydroxyflavone]
% HCV-NS5BΔ21 inhibition: 37.4%
Slope of fluorescence increase: 38.8

O=c1c(O)c(-c2ccccc2)oc2cc(O)ccc12 [7-hydroxyflavonol]
inhibition at 20 µM: 71.3%
Slope of fluorescence increase: 17.8

O=c1cc(-c2ccc(O)cc2)oc2cc(O)ccc12 [7.4’-Dihydroxyflavone]
% HCV-NS5BΔ21 inhibition: 25.7%
Slope of fluorescence increase: 46.1

O=c1cc(-c2ccccc2)oc2c(O)c(O)ccc12 [7.8 Dihydroxyflavone]
% HCV-NS5BΔ21 inhibition: 30.8%
Slope of fluorescence increase: 42.9

O=c1cc(-c2ccc(O)cc2)oc2cc(O)cc(O)c12 [Apigenin]
inhibition at 20 µM: 62.5%
Slope of fluorescence increase: 23.3

O=c1cc(-c2ccccc2)oc2cc(O)c(O)c(O)c12 [Baicalein]
inhibition at 20 µM: 61.8%
Slope of fluorescence increase: 23.7

O=c1c(O)c(-c2ccccc2O)oc2cc(O)cc(O)c12 [Datiscetin]
inhibition at 20 µM: 70.5%
Slope of fluorescence increase: 18.3

O=c1c(O)c(-c2ccc(O)c(O)c2)oc2cc(O)ccc12 [Fisetin]
inhibition at 20 µM: 65.8%
Slope of fluorescence increase: 21.2

O=C1CC(c2ccccc2)Oc2ccccc21 (stereo not shown) [Flavanone]
inhibition at 20 µM: 7.5%
Slope of fluorescence increase: 57.4

O=c1cc(-c2ccccc2)oc2ccccc12 [Flavone]
inhibition at 20 µM: 13.1%
Slope of fluorescence increase: 53.9

O=C1c2ccc(O)cc2O[C@H](c2ccc(O)c(O)c2)[C@H]1O [Fustin]
inhibition at 20 µM: 14.5%
Slope of fluorescence increase: 53.0

O=c1c(O)c(-c2ccccc2)oc2cc(O)cc(O)c12 [Galangin]
inhibition at 20 µM: 80.8%
Slope of fluorescence increase: 11.9

O=c1c(-c2ccc(O)cc2)coc2cc(O)cc(O)c12 [Genistein]
inhibition at 20 µM: 13.1%
Slope of fluorescence increase: 53.9

O=c1c(O)c(-c2ccc(O)c(O)c2)oc2c(O)c(O)cc(O)c12 [Gossypetin]
inhibition at 20 µM: 74.6%
Slope of fluorescence increase: 15.8

O=c1c(O[C@@H]2O[C@H](CO)[C@H](O)[C@H](O)[C@H]2O)c(-c2ccc(O)c(O)c2)oc2cc(O)cc(O)c12 [Hyperoside]
inhibition at 20 µM: 28.1%
Slope of fluorescence increase: 44.6

COc1cc(-c2oc3cc(O)cc(O)c3c(=O)c2O)ccc1O [Isorhamnetin]
inhibition at 20 µM: 77.6%
Slope of fluorescence increase: 13.9

O=c1c(O)c(-c2ccc(O)cc2)oc2cc(O)cc(O)c12 [Kaempferol]
inhibition at 20 µM: 74.7%
Slope of fluorescence increase: 15.7

O=C1C[C@@H](c2ccc(O)cc2)Oc2cc(O)ccc21 [Liquiritigenin]
% HCV-NS5BΔ21 inhibition: 6.1%
Slope of fluorescence increase: 58.3

O=c1cc(-c2ccc(O)c(O)c2)oc2cc(O)cc(O)c12 [Luteolin]
inhibition at 20 µM: 81.7%
Slope of fluorescence increase: 11.4

O=c1c(O)c(-c2ccc(O)cc2O)oc2cc(O)cc(O)c12 [Morin]
inhibition at 20 µM: 69.3%
Slope of fluorescence increase: 19.0

O=c1c(O)c(-c2cc(O)c(O)c(O)c2)oc2cc(O)cc(O)c12 [Myricetin]
inhibition at 20 µM: 79.2%
Slope of fluorescence increase: 12.9

O=C1C[C@@H](c2ccc(O)cc2)Oc2cc(O)cc(O)c21 [Naringenin]
inhibition at 20 µM: 6%
Slope of fluorescence increase: 58.3

O=c1c(O)c(-c2ccc(O)c(O)c2)oc2cc(O[C@@H]3O[C@H](CO)[C@@H](O)[C@H](O)[C@H]3O)c(O)c(O)c12 [Quercetagetin-7-O glucoside]
% HCV-NS5BΔ21 inhibition: 42.5%
Slope of fluorescence increase: 35.7

COc1cc(OC)c2c(=O)c(OC)c(-c3ccc(OC)c(OC)c3)oc2c1 [Quercetin 3.5.7.3’.4’ pentamethylether]
% HCV-NS5BΔ21 inhibition: 4.0%
Slope of fluorescence increase: 59.6

COc1cc(O)c2c(=O)c(OC)c(-c3ccc(OC)c(OC)c3)oc2c1 [Quercetin 3.7.3’.4’ tétramethylether]
% HCV-NS5BΔ21 inhibition: 14.5%
Slope of fluorescence increase: 53.0

O=c1c(O[C@@H]2O[C@H](CO)[C@@H](O)[C@H](O)[C@H]2O)c(-c2ccc(O)c(O)c2)oc2cc(O)cc(O)c12 [Quercetin-3-O glucopyranoside]
% HCV-NS5BΔ21 inhibition: 25.9%
Slope of fluorescence increase: 46.0

O=c1c(O)c(-c2ccc(O)c(O)c2)oc2cc(O)cc(O)c12 [Quercetin]
inhibition at 20 µM: 83.7%
Slope of fluorescence increase: 10.1

O=c1c(O)c(-c2cc(O)c(O)c(O)c2)oc2cc(O)ccc12 [Robinetin]
inhibition at 20 µM: 55.9%
Slope of fluorescence increase: 27.4

C[C@@H]1O[C@@H](OC[C@H]2O[C@@H](Oc3c(-c4ccc(O)c(O)c4)oc4cc(O)cc(O)c4c3=O)[C@H](O)[C@@H](O)[C@@H]2O)[C@H](O)[C@H](O)[C@H]1O [Rutin]
inhibition at 20 µM: 30.3%
Slope of fluorescence increase: 43.2

O=c1cc(-c2ccc(O)cc2)oc2cc(O)c(O)c(O)c12 [Scutellarein]
inhibition at 20 µM: 67.4%
Slope of fluorescence increase: 20.2

O=c1cc(-c2cc(O)c(O)c(O)c2)oc2cc(O)cc(O)c12 [Tricetin]
inhibition at 20 µM: 69.5%
Slope of fluorescence increase: 18.9
